The values that follow come from patent publication US20040010018A1, “Treatment of neuropathic pain” (priority 2002, published 2004).

Each structure is given as a SMILES string. “Also recorded” adds a separate entry of the source. Counter-ions that a name gives are not always drawn.

Data set [1] is described as follows: observed side effects / behaviors after injection in neuropathic rats. Format: in vivo, rat.
The conditions of data set [2]: given systemically (i.p.); cited from earlier work.
In data set [3] the test system is neuropathic pain (mechanical allodynia). The experiment in a line: mechanical allodynia (von Frey) in the rat spinal nerve ligation model of neuropathic pain. Type of data set: in vivo. To be noted: for effect of antagonist pretreatment on A-85380 induced anti-allodynia: A-85380 0.75 μmol/kg i.p. The source says:
Under halothane anesthesia, the L5 and L6 spinal nerves were tightly ligated in the manner described previously by Chung et al. (Kim S. H., Chung J. M., An experimental model for peripheral neuropathy produced by segmental spinal nerve ligation in the rat. Pain 1992; 50:355-363.). Briefly, an incision was made on the dorsal portion of the hip, and the muscle was blunt dissected to reveal the spinal processes. The L6 transverse process was removed, and the left L5 and L6 spinal nerves were tightly ligated with 5.0 braided silk suture. The wound was cleaned, the membrane sewn with 4.0 dissolvable Vicryl suture and the skin closed with wound clips.
Implantation of the DRG catheters was performed immediately following nerve ligation, with animals maintained under halothane for the entire procedure (35-40 minutes). Catheters were constructed of PE 20 with small pieces of tygon tubing cemented along the catheter to allow for suture anchoring points during surgery. The left L5 DRG was exposed by removing the posterior articular process of the L5 vertebra. Gelfoam was inserted into the cavity to prevent the catheter from damaging the ganglion. The catheter was sutured to the muscle and fascia, then run subcutaneously to exteriorize between the shoulder blades. Saline was infused into the catheter, and it was heat sealed.
The implantation of i.c.v. cannulae were conducted under sodium pentobarbital (50 mg/kg, i.p. Nembutal) anesthesia with nerve ligation occurring just after the implantation; animals were maintained under anesthesia for the entire procedure (40-45 minutes). Animals were implanted with a 22 gauge guide cannulae (Plastics One, Roanoke Va.) cut to 6 mm. The stereotaxic coordinates from bregma were 1.0 mm posterior, 1.6 mm lateral, and 4.5 ventral (Paxinos G. and Watson C., The rat brain in stereotaxic coordinates. New York: Academic Press, 1997). Three skull screws were attached for stability, and the implant was covered with cranioplastic acrylic.
For i.c.v. (intracerebroventricular) infusion, chlorisondamine (10 μg) was dissolved in 5 μl phosphate buffered saline and infused by syringe pump at a rate of 5 μl/min. The infusion was performed 24 hours prior to testing in order to reduce stress to the animals immediately prior to behavioral testing.
For all other routes of administration including intraperotineal (i.p.), intradermal (i.d.) or onto the DRG, chlorisondamine was dissolved in saline. The final volumes for i.p. injections were 1 ml/kg, for i.d. were 50 μl and for DRG injections were 10 μl. All injections were made by hand held syringe.
For the assessment of neuropathic pain, mechanical allodynia in the affected paw of animals who had undergone spinal nerve ligation was evaluated using von Frey filaments. As described previously (Chaplan et al, Quantitative assessment of tactile allodynia in the rat paw. J Neurosci Meth, 1994; 53:55-62), two weeks following surgery, rats were acclimated to the testing box which was constructed of plexiglass with a wire mesh floor to allow access to the planter surface of the hind paws. Using the Dixons Up-Down method, a baseline level of allodynia was taken with allodynia defined as a withdrawal threshold <4 g. Test compounds were then administered and subsequent withdrawal thresholds determined.
For spinal nerve ligation experiments, the timing of antagonist administration depended upon the route of administration. With i.c.v. administration, chlorisondamine or its vehicle was given 24 hours prior to further manipulation. On the day of the experiment, a baseline allodynia score was determined and then A-85380 or its vehicle control was given and measures taken at 15, 30 and 60 minutes post agonist injection. Dose response curves for i.p., i.d. and DRG administration were also determined using this time line. […]

In data set [4] the test system is acute thermal pain. The data set can be described thus: rat paw withdrawal model of acute thermal pain using neuropathic rats. Format: in vivo. To be noted: chlorisondamine 0.4 μmol/kg i.p., A-85380 0.75 μmol/kg i.p. The source says: (§1) For the assessment of acute pain, a paw thermal stimulator was used to evaluate nociceptive responses to an acute thermal stimulus (Anesthesiology Research Laboratory, Department of Anesthesiology, University of California at San Diego, La Jolla, Calif.). The device and behavioral procedure have been described previously (Hargreaves et al., A new and sensitive method for measuring thermal nociception in cutaneous hyperalgesia, Pain 1988, 32:77-88; Dirig et al., Characterization of variables defining hind paw withdrawal latency evoked by radiant thermal stimuli, J. Neurosci. Meth. 1997; 76:183-191). Briefly, rats were placed in Plexiglas boxes on a glass surface maintained at 30° C. and allowed to acclimate for 30 minutes. The measured nociceptive response was the latency to withdraw the hind paw when heated by light from a focused projector lamp (current set at 4.8 A). The final score was the mean of the latencies for the left and right paw. To avoid tissue damage, the maximal response latency prior to automatic shutoff of the lamp was 20.5 sec.
(§2) For acute thermal pain experiments, a baseline withdrawal threshold was determined, and then chlorisondamine or its vehicle was administered. […]
To address this concern, neuropathic rats were assessed in the acute thermal model of paw withdrawal. […]

Another data set relates to persistent pain. The experiment in a line: formalin model of persistent pain (phase two). Type of data set: in vivo, rat. To be noted: A-85380 0.75 μmol/kg i.p. Here is the method: The formalin test was used as an assessment of persistent pain. The method, described previously (Bannon et al. 1998) is briefly as follows. Following acclimation to the test environment, 50 μl of a 5% formalin solution was injected subcutaneously into the dorsal surface of one of the rear paws. Only phase two, defined as the 20 minute period from 30 to 50 minutes post formalin injection, was scored for nocifensive behaviors including flinching, licking, and biting.
For formalin experiments, chlorisondamine or its vehicle was infused either 24 h or 40-50 minutes prior to further manipulation. A-85380 was then injected and, 5 minutes later, formalin was injected into the paw. Measures were taken between 30 and 50 minutes post formalin injection.
The effect of centrally and systemically administered chlorisondamine in a model of persistent pain was examined. Using phase two of the formalin model of persistent pain, chlorisondamine (10 μg) was administered i.c.v. 24 hours prior to the systemic administration of A-85380.

The test system of data set [5] is acute thermal pain. The data set can be described thus: rat paw withdrawal model of acute thermal pain, normal rats. Type of data set: in vivo. The note with it: chlorisondamine 0.4 μmol/kg i.p. 30 min prior, A-85380 0.75 μmol/kg i.p.
Excerpt: as §1, with “To avoid tissue damage, the maximal response latency prior to automatic shutoff of the lamp was 20.5 sec.” left out
as §2
The effect of systemically administered chlorisondamine in a model of acute thermal pain was examined. […] The effect of systemically administered chlorisondamine (0.4 μmol/kg, i.p.) on A-85380 (0.75 μmol/kg, i.p.) was assessed.

Setting [6] is: chlorisondamine 10 μg i.c.v. 24 hours prior.

As for `Cl.Cl.c1cncc(OC[C@@H]2CCN2)c1` [A-85380, 3-(2(S)-azetidinylmethoxy)pyridine dihydrochloride], in data set [1] (0.5-1.0 μmol/kg, i.p.), the “behaviors induced immediately following injection” value is “prostration and ataxia”. Besides, the “time point by which prostration and ataxia abated” value in data set [1] (0.5-1.0 μmol/kg, i.p.) is not above 15 min. In addition, the “side effects with peripheral NNRs blocked” value in data set [1] (chlorisondamine 0.4 μmol/kg i.p. pretreatment, A-85380 at increased dose) was “significant increase in side effects”. In addition, in data set [1] (chlorisondamine 10 μg i.c.v. pretreatment, A-85380 at increased dose), the “side effects with central NNRs blocked” value is given as “almost no side effects”. Moreover, the “side effects accompanying the reduction in allodynia” value in data set [1] (given systemically (i.p.), no antagonist) was “prostration, ataxia, bracing and dyspnea”. The “crossing of the blood brain barrier” value in data set [2] is reported as “readily crosses the blood brain barrier”. Moreover, the “anti-allodynia (paw withdrawal threshold)” value in data set [3] (10 μg infused onto the L5 DRG) is listed as “significant anti-allodynia”; in data set [3] (20 μg infused onto the L5 DRG) it was “significant anti-allodynia”; in data set [3] (infused directly onto the L5 DRG, different doses) it was “dose-dependent anti-allodynic effect”; in data set [3] (systemically administered (i.p.), no antagonist, dihydrochloride) it was “significant, dose-dependent decrease; also recorded: dose dependent anti-allodynia; also recorded: dose-dependent anti-allodynia”. In addition, the values for the duration of anti-allodynia in data set [3] (10 μg infused onto the L5 DRG) and in data set [3] (20 μg infused onto the L5 DRG) were 15 min and 30 min, respectively. In addition, the “anti-allodynia in the affected paw (paw withdrawal threshold)” value in data set [3] (10, 20 and 50 μg/rat i.d. into plantar surface of contralateral (unaffected) paw, dihydrochloride) was “all three doses of A-85380 induced a significant anti-allodynia; also recorded: equivalent or greater anti-allodynia”; in data set [3] (10, 20 and 50 μg/rat i.d. into plantar surface of ipsalateral (affected) paw, dihydrochloride), “only the 50 μg dose of A-85380 had an anti-allodynic effect; also recorded: small but significant anti-allodynia”. The “dose required for significant reduction in allodynia” value in data set [3] (central NNRs blocked with chlorisondamine 10 μg i.c.v.) was found to be 3 µmol/kg; in data set [3] (given without an antagonist), 0.75 µmol/kg; in data set [3] (peripheral NNRs blocked with chlorisondamine 0.4 μmol/kg i.p.), 1.5 µmol/kg. Moreover, in data set [3] (chlorisondamine 0.4 μmol/kg i.p. pretreatment, systemic A-85380), the “reduction in allodynia with peripheral NNRs blocked” value was “significant reduction in allodynia”. For the same compound, the “reduction in allodynia with central NNRs blocked” value in data set [3] (chlorisondamine 10 μg i.c.v. pretreatment, systemic A-85380) is listed as “significant reduction in allodynia”. Also, the “potency to increase paw withdrawal threshold, i.p. compared with i.d. administration” value in data set [3] (doses converted to equivalent systemic dose, 15 minute time point) is listed as “similar”. The “potency to increase paw withdrawal threshold, DRG administration compared with i.p. and i.d.” value in data set [3] (doses converted to equivalent systemic dose, 15 minute time point, dihydrochloride) was “decidedly more potent; also recorded: most potent”.
Take `O=C(NO)c1cncc(N2C[C@H]3CNC[C@H]32)c1` [A-420503, (IR, 5S) 5-(3,6-diazabicyclo [3.2.0]hept-6-yl)-N-hydroxy-nicotinamide]: the side effects entry in data set [1] (62 μmol/kg, i.p.) was “without any notable side effects”. The anti-allodynia result in data set [3] (62 μmol/kg, i.p.) is on record as “significant anti-allodynia”; in data set [3] (at the DRG, equivalent to 4.77 μmol/kg i.p.) it was “significant anti-allodynia”. In data set [3] (DRG administration), the “effects at the DRG after pretreatment with an NMR antagonist” value is “blocked”.
For `C[N+](C)(C)CCCCCC[N+](C)(C)C` [Hexamethonium, hexamethonium], the “effect of antagonist pretreatment on A-85380 induced anti-allodynia” value (from here on “effect … on A-85380 induced anti-allodynia”) in data set [3] (hexamethonium 19 μmol/kg i.p. 30 minutes prior) is recorded as “blocked”.
Turning to `CNC1(C)C2CCC(C2)C1(C)C` (stereo not drawn) [Mecamylamine, mecamylamine hydrochloride], the “effect of antagonist pretreatment on prostration and ataxia following A-85380 injection” value in data set [1] (mecamylamine 1 μmol/kg i.p. 30 minutes prior to A-85380) was “blocked”. Also, the “effect … on A-85380 induced anti-allodynia” value was “completely blocked” in data set [3] (mecamylamine 1 μmol/kg i.p. 30 minutes prior, hydrochloride) and “full blockade” in data set [3] (mecamylamine 1 μmol/kg i.p. 30 minutes prior, listed as mecamylamine, hydrochloride).
For the compound `C[N+](C)(C)CC[N+]1(C)Cc2c(Cl)c(Cl)c(Cl)c(Cl)c2C1` [chlorisondamine, chlorisondamine diiodide], the “effect … on A-85380 induced anti-allodynia” value in data set [3] (chlorisondamine 0.4 μmol/kg i.p. 30 minutes prior) and in data set [3] (setting [6]) was “completely blocked” in each case. Also, the “effect of antagonist pretreatment on anti-allodynia induced by A-85380 infused onto the DRG” value in data set [3] (chlorisondamine 0.4 μmol/kg i.p. 30 minutes prior, A-85380 20 μg onto DRG) was “completely blocked”. The figures for the “effect of antagonist pretreatment on A-85380 induced antinociception (paw withdrawal latency)” value in the data set with acute thermal pain [4] and in the data set with acute thermal pain [5] were “did not alter; also recorded: does not alter” and “no effect; also recorded: completely ineffective”, respectively. Further, the entries for the “effect of antagonist pretreatment on A-85380 induced analgesia (flinches, phase two)” value in the data set with persistent pain (chlorisondamine 0.4 μmol/kg i.p. 40-50 minutes prior to formalin) and in the data set with persistent pain (setting [6]) were “no significant attenuation; also recorded: no significant effect” and “completely blocked”, respectively.
